Results from patent US10561666B2, “Amido compounds as RORγt modulators and uses thereof” (New York University, priority 2010, dated 2020).

Experiments:
RORγt = RORγt (Mus musculus, UniProt P51450, T352K); assay: RORγt S2 cell Gal4-luciferase reporter assay; details: for Emax: read-out: Efficacy (%)
From the text: Methods: The Drosophila S2 cell line was originally purchased from Invitrogen and was maintained in Schneider's medium supplemented with 10% heat-inactivated bovine fetal calf serum and antibiotics (Invitrogen). […] The resulting chimeric gene was subcloned into the copper inducible pMT/V5-His A vector (available from Invitrogen).
In order to generate stable cell lines, cells were co-transfected with pMT-G4DBD-RORγt, pMT-G4DBD-RORα, pMT-G4DBD-DHR3, or pMT-G4DBDVP16 and pHygro plasmids (Invitrogen) and screened for resistant colonies in the presence of hygromycin (0.3 mg/mL).
Methods: 600 G4DBD-RORγ/γt-luc reporter (#25) or G4DBD-VP16-luc reporter cells were distributed into each well of 1,536-well white bottom plates in 4 μl S2 cell culture volume containing hygromicin (300 μg/ml) and puromycin (2 μg/ml). […] After one-hour incubation, 1 μl of culture medium solution containing copper sulfate (to final 0.7 mM) and 10 μM RORγ/γt antagonists were added to each well. After 20-hour incubation at ambient temperature, 1.5 μl firefly luciferase detection mix was added and the luciferase activities were measured in 10 min. ViewLux luminometers were used for measuring luciferase signal.
Since their cognate DNA binding sites were not well characterized, the DNA binding domains (DBD) of RORγ/γt, RORα (mouse homolog for POPγ), and DHR3 (Drosophila orthologue for ROR family proteins) were replaced with the heterologous yeast GAL4 DBD. The transcriptionally active domain of general transcriptional activator VP16 was also fused with GAL4 DBD. The GAL4 fusion constructs were placed under the control of a copper inducible promoter, and stable S2 cell lines with genomic integration of these four reporter constructs were generated. The copper inducible promoter ensures tight regulation of GAL4-fusion protein expression and it allows small molecules to get into the cells prior to protein induction, thus increasing their effects on GAL4 reporters. The stable reporter cell lines also encode the firefly luciferase reporter, whose expression is regulated by five copies of the GAL4 binding site enhancer (UAS), along with the pol III-driven Renilla luciferase reporter.
A cell-based reporter assay was used to detect RORγt-mediated activity. This assay, called RORγt□ employed Drosophila Schneider cells that were stably transfected with two vectors: a gene expressing a fusion of the Gal4 DNA binding domain and RORγt transactivation domain under the control of the metallothionine promoter and a Photinus luciferase reporter regulated by the Gal4 binding site enhancer, UAS. […] Cells (600/well) were dispensed into white solid 1536-well plates (Greiner) using a solenoid-based dispenser. Following transfer of 23 nL compound or DMSO vehicle by a pin tool, the plates were incubated 1 hr at ambient temperature, and 1 uL/well copper sulfate (700 uM final concentration) was added. The plates were centrifuged 15 s at 1000 RPM and incubated 20 hr at ambient temperature. After addition of 1.5 uL Photinus luciferase detection reagent, the plates were incubated 10 min at ambient temperature and then read by a ViewLux (Perkin Elmer) to detect luminescence. […] Efficacy is expressed as % of the maximal response of control inhibitor (Digoxin), set at 100%.

mouse Th17 polarization = assay: Mouse Th17 polarization assay (IL-17a producing cells); format: cell-based; details: for IC50: naive mouse CD4 T cells, TGFβ and IL6, compounds added Day 1, analyzed Day 4, IL-17a producing cells, read-out: Th 17 IC50
Protocol: Effects of compound derivatives at various concentrations on mouse Th17 polarization. Percentage of DMSO treated IL-17a producing cells was set at 100. Naive mouse CD4 T cells (CD25^−, CD62L^+, and CD44^int-high) were sorted and cultured with CD3/CD28 stimulatory antibodies in the presence of TGFβ (0.1 ng/ml) and IL6 (20 ng/ml). Compounds were added on Day 1 and cells were analyzed on Day 4. For intracellular cytokine staining, cells were incubated for 5 h with phorbol ester (50 ng/ml; Sigma), ionomycin (500 ng/ml; Sigma) and GolgiStop (BD). When needed, surfaces were stained by incubation for 15 min on ice with PECy7-conjugated CD4 (BD Biosciences). The Cytofix/Cytoperm buffer set (BD) was used for intracellular staining. Cells were fixed and made permeable for 30 min on ice and were stained for 30 min on ice in permeabilization buffer with Alexa647-conjugated anti-IL17 (eBioscience) and PE-conjugated anti-IFNg (eBioscience). An LSR II (BD Biosciences) and FlowJo software (Tree Star) were used for flow cytometry. RORg IC50 value acquired from the S2 cell reporter assay is listed for comparison.
Naive CD4 T cells (CD25^−, CD62L^+, and CD44^int-high) were sorted and cultured with CD3/CD28 stimulatory antibodies in the presence of TGFβ (0.1 ng/ml) and IL6 (20 ng/ml). Compounds were added on Day 1 and cells were analyzed on Day 4. For intracellular cytokine staining, cells were incubated for 5 h with phorbol ester (50 ng/ml; Sigma), ionomycin (500 ng/ml; Sigma) and GolgiStop (BD). When needed, surfaces were stained by incubation for 15 min on ice with PECy7-conjugated CD4 (BD Biosciences). The Cytofix/Cytoperm buffer set (BD) or FoxP3 staining kit (eBioscience) were used for intracellular staining. Cells were fixed and made permeable for 30 min on ice and were stained for 30 min on ice in permeabilization buffer with Alexa647-conjugated anti-IL17 (eBioscience), PE-conjugated anti-IFNg (eBioscience), and/or PE-conjugated anti-FoxP3 (eBioscience). An LSR II (BD Biosciences) and FlowJo software (Tree Star) were used for flow cytometry.

[1] = IC50(μM), Drosophila S2 cells, Gal4-RORγt luciferase reporter, 20 hr
[2] = S2 cell RORg IC50 μM, S2 cell reporter assay, listed for comparison

Chain of RORγt (P51450 with tags, fused parts or gaps T352K): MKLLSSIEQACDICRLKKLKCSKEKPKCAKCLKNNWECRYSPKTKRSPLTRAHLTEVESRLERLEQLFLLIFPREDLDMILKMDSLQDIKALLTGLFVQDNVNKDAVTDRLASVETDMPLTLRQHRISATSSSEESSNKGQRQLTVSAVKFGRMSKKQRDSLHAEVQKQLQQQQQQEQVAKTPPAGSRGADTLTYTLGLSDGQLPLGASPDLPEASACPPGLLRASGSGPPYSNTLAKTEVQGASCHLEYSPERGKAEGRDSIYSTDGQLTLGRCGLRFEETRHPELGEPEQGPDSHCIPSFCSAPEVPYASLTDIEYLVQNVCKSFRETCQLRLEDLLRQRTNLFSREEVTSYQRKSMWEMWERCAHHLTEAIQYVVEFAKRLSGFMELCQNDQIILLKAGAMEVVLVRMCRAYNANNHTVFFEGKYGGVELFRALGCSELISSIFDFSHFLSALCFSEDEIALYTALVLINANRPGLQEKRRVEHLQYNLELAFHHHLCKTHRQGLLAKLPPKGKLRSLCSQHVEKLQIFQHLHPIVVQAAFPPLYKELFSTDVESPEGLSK

Compound	Emax (RORγt) [%]	IC50 (RORγt; [1]) [µM]	IC50 (mouse Th17 polarization) [µM]	also measured
COc1cc(O)c([C@@H](CC(=O)N2CC(C)CC(C)C2)c2ccc3c(c2)OCO3)c(OC)c1 (single isomer, unassigned; (-)) [Compound 35]	91		< 1	
COc1cc(O)c(C(CC(=O)N2CCC(C)CC2)c2ccc3c(c2)OCO3)c(OC)c1 (centres unmarked) [Compound 1]			> 20	
COc1cc(O)c(C(CC(=O)N2CCCC(C)(C)C2)c2ccc3c(c2)OCO3)c(OC)c1 (centres unmarked) [Compound 8]			1 to 10	
COc1cc(O)c(C(CC(=O)N2CC(C)CC(C)C2)c2ccc3c(c2)OCO3)c(OC)c1 (centres unmarked) [Compound 22]	97.7		< 1	
COc1cc(O)c(C(CC(=O)N2CC(C)OC(C)C2)c2ccc3c(c2)OCO3)c(OC)c1 (centres unmarked) [Compound 41]			< 1	
COc1cc(O)c(C(CC(=O)N2CCCC(C(F)(F)F)C2)c2ccc3c(c2)OCO3)c(OC)c1 (centres unmarked) [Compound 43]			1 to 10	
COc1ccc(C(CC(=O)N2CCCC(C)C2)c2c(O)cc(OC)cc2OC)cc1 (centres unmarked) [Compound 60]	91.7	1 to 10	1 to 10	IC50 (RORγt; [2]): 1 to 10 µM
COc1cc(O)c(C(CC(=O)N2CC(C)CC(C)C2)c2ccc(C)cc2)c(OC)c1 (centres unmarked) [Compound 73]			< 1	
COc1ccc(C(CC(=O)N2CC(C)CC(C)C2)c2c(O)cc(OC)cc2OC)cc1 (centres unmarked) [Compound 74]			< 1	
COc1ccc(C(CC(=O)N2CCCC(C)C2)c2ccc3c(c2)OCO3)c(O)c1 (centres unmarked) [Compound 115]			> 20	
COc1cc(OC)c(C(CC(=O)N2CCCC(C)C2)c2ccc3c(c2)OCO3)c(OC)c1 (centres unmarked) [Compound 120, 3-(Benzo[d][1,3]dioxol-5-yl)-1-(3-methylpiperidin-1-yl)-3-(2,4,6-trimethoxyphenyl)propan-1-one]			1 to 10	
COc1cccc(O)c1C(CC(=O)N1CCCC(C)C1)c1ccc2c(c1)OCO2 (centres unmarked) [Compound 121]			> 20	
CC(=O)Nc1ccc(C(CC(=O)N2CC(C)CC(C)C2)c2ccc3c(c2)OCO3)c(O)c1 (centres unmarked) [Compound 133]	103	1 to 10		
CC1CC(C)CN(C(=O)CC(c2ccc3c(c2)OCO3)c2c(O)ccc3ccccc23)C1 (centres unmarked) [Compound 138]			1 to 10	
CC1CC(C)CN(C(=O)CC(c2ccc(-n3cncn3)cc2)c2ccc3c(c2)OCO3)C1 (centres unmarked) [Compound 141, 3-(4-(1H-1,2,4-Triazol-1-yl)phenyl)-3-(benzo[d][1,3]dioxol-5-yl)-1-(3,5-dimethylpiperidin-1-yl)propan-1-one]	106	11 to 50		
CC1CC(C)CN(C(=O)CC(c2ccc3c(c2)OCO3)c2cccc(F)c2O)C1 (centres unmarked) [Compound 143]	86.4	11 to 50		

Compound	Emax (RORγt) [%]	IC50 (RORγt; [1]) [µM]	IC50 (mouse Th17 polarization) [µM]	also measured
CC1CC(C)CN(C(=O)CC(c2ccc3c(c2)OCO3)c2ccc(F)cc2O)C1 (centres unmarked) [Compound 144]	97.3	11 to 50		
CC1CC(C)CN(C(=O)CC(c2ccc3c(c2)OCO3)c2cc(F)ccc2O)C1 (centres unmarked) [Compound 145]	79.7	1 to 10		
CC1CC(C)CN(C(=O)CC(c2ccc3c(c2)OCO3)c2c(O)ccc3cccnc23)C1 (centres unmarked) [Compound 146]	94.1	1 to 10		
O=C(CC(c1ccc2c(c1)OCO2)c1c(O)ccc2ccccc12)N1CCCCC1 (centres unmarked) [Compound 147]	88.1	11 to 50		
COc1cc(OC)c(C(c2ccccc2)C(C)(C)C(=O)N2CC(C)CC(C)C2)c(OC)c1 (centres unmarked) [Compound 149, 1-(3,5-Dimethylpiperidin-1-yl)-2,2-dimethyl-3-phenyl-3-(2,4,6-trimethoxyphenyl)propan-1-one]	93.8	1 to 10		IC50 (RORγt; [2]): 1 to 10 µM
COc1cc(OC)c(C(c2ccccc2)C(C)(C)C(=O)N2CC(C)OC(C)C2)c(OC)c1 (centres unmarked) [Compound 150]	91.6	1 to 10		
COc1cc(OC)c(C(c2ccccc2)C(C)(C)C(=O)N2CC3CC4CC(C3)CC2C4)c(OC)c1 (centres unmarked) [Compound 151]	118	> 50		
COc1cc(OC)c(C(c2ccccc2)C(C)(C)C(=O)N2CC3CCC2C3)c(OC)c1 (centres unmarked) [Compound 152]	50.7	11 to 50		
COc1cc(OC)c(C(c2ccccc2)C(C)(C)C(=O)N2C3CCC2CC3)c(OC)c1 (centres unmarked) [Compound 153]	36.5	1 to 10		
COc1cc(OC)c(C(c2ccccc2)C(C)(C)C(=O)NC2CC(C)(C)CC(C)(C)C2)c(OC)c1 (centres unmarked) [Compound 154]		> 50		
CCCN(C(=O)C(C)(C)C(c1ccccc1)c1c(OC)cc(OC)cc1OC)C1CCCC(C)C1 (centres unmarked) [Compound 155]		> 50		
COc1ccc2ccccc2c1C(c1ccc(F)cc1)C(C)(C)C(=O)N1CC(C)OC(C)C1 (centres unmarked) [Compound 156]	99.9	11 to 50		
COc1ccc2ccccc2c1C(c1ccc(F)cc1)C(C)(C)C(=O)N1CC(C)CC(C)C1 (centres unmarked) [Compound 157]	94.4	1 to 10		
COc1cc(O)c(C(CC(=O)N2CCCCC2)c2ccc3c(c2)OCO3)c(OC)c1 (centres unmarked) [NCGC00166488]				mouse Th17 cell differentiation, as measured by IL17a production (mouse Th17 polarization; 20 μM, compared to DMSO treated cells, FACS (FIG. 3)): suppress mouse Th17 cell differentiation
N-(3-(3-(3,5-Dimethylpiperidin-1-yl)-1-(2-hydroxy-4,6-dimethoxyphenyl)-3-oxopropyl)phenyl)methanesulfonamide [Compound 82]				Efficacy (%) (RORγt; % of the maximal response of control inhibitor (Digoxin), set at 100%): −95.39%; IC50 (RORγt; Drosophila S2 cells, Gal4-RORγt luciferase reporter, 20 hr): < 1 µM

Second part, led by results:

Emax (RORγt) [%]	IC50 (RORγt; [1]) [µM]	Compound	IC50 (mouse Th17 polarization) [µM]	also measured
	> 50	COc1cc(O)c(C(CC(=O)N2CC(C)NC(C)C2)c2ccc3c(c2)OCO3)c(OC)c1 (centres unmarked) [Compound 42]	> 20	IC50 (RORγt; [2]): > 20 µM
97	1 to 10	COc1cc(O)c(C(CC(=O)N2CCCC(C)C2)c2ccc(C)cc2)c(OC)c1 (centres unmarked) [Compound 57]	1 to 10	IC50 (RORγt; [2]): 1 to 10 µM
95.4	1 to 10	COc1cc(O)c(C(CC(=O)N2CCCC(C)C2)c2ccccc2)c(OC)c1 (centres unmarked) [Compound 61]	> 20	IC50 (RORγt; [2]): 1 to 10 µM
94.9	1 to 10	CC1CCCN(C(=O)CC(c2ccc3c(c2)OCO3)c2c(O)ccc3ccccc23)C1 (centres unmarked) [Compound 118]		IC50 (RORγt; [2]): 1 to 10 µM
94.3	11 to 50	CCOc1ccc(O)c(C(CC(=O)N2CCCC(C)C2)c2ccc3c(c2)OCO3)c1 (centres unmarked) [Compound 119]		IC50 (RORγt; [2]): 11 to 20 µM
	> 50	CC1CCCN(C(=O)CC(c2ccc3c(c2)OCO3)c2ccc(O)cc2O)C1 (centres unmarked) [Compound 122]		
98	1 to 10	C#CCOc1cc(OC)cc(OC)c1C(CC(=O)N1CCCC(C)C1)c1ccc2c(c1)OCO2 (centres unmarked) [Compound 123]		
94.1	1 to 10	COc1cc(OC)c(C(CC(=O)N2CCCC(C)C2)c2ccc3c(c2)OCO3)c(OCc2ccccc2)c1 (centres unmarked) [Compound 124]		IC50 (RORγt; [2]): 1 to 10 µM
51.6	11 to 50	Cc1ccc(C(CC(=O)N2CCCC(C)C2)c2ccc3c(c2)OCO3)c(O)c1 (centres unmarked) [Compound 125]		
43.5	11 to 50	Cc1cccc(O)c1C(CC(=O)N1CCCC(C)C1)c1ccc2c(c1)OCO2 (centres unmarked) [Compound 126]		
27.1	11 to 50	CC1CCCN(C(=O)CC(c2ccc3c(c2)OCO3)c2c(O)cccc2Cl)C1 (centres unmarked) [Compound 127]		
80	11 to 50	COc1cc2ccccc2c(O)c1C(CC(=O)N1CCCC(C)C1)c1ccc2c(c1)OCO2 (centres unmarked) [Compound 128]		
76.9	11 to 50	COc1cc(O)c(C(CC(=O)N2CCCC(C)C2)c2ccc3c(c2)OCO3)c2ccccc12 (centres unmarked) [Compound 129]		
77.5	11 to 50	COc1ccc(C)c(O)c1C(CC(=O)N1CCCC(C)C1)c1ccc2c(c1)OCO2 (centres unmarked) [Compound 130]		
33.2	11 to 50	CC1CCCN(C(=O)CC(c2ccc3c(c2)OCO3)c2ccc(I)cc2O)C1 (centres unmarked) [Compound 131]		
30.4	1 to 10	CC1CCCN(C(=O)CC(c2ccc3c(c2)OCO3)c2ccc(F)cc2O)C1 (centres unmarked) [Compound 132]		
94.5	< 1	COc1c(C(CC(=O)N2CC(C)CC(C)C2)c2ccc3c(c2)OCO3)c(O)cc2occc12 (centres unmarked) [Compound 139]		
96.5	< 1	COc1cccc(O)c1C(CC(=O)N1CC(C)CC(C)C1)c1ccc2c(c1)OCO2 (centres unmarked) [Compound 140, 3-(Benzo[d][1,3]dioxol-5-yl)-1-(3,5-dimethylpiperidin-1-yl)-3-(2-hydroxy-6-methoxyphenyl)propan-1-one]		
